In the test the target is T1, full-length AR (Homo sapiens, UniProt P10275, T878A).
T1 construct: Transcriptional activity of full-length AR was assessed in LNCaP cells; endogenous in cells; host or cells: LNCaP
T1 sequence (P10275 1-920 T878A): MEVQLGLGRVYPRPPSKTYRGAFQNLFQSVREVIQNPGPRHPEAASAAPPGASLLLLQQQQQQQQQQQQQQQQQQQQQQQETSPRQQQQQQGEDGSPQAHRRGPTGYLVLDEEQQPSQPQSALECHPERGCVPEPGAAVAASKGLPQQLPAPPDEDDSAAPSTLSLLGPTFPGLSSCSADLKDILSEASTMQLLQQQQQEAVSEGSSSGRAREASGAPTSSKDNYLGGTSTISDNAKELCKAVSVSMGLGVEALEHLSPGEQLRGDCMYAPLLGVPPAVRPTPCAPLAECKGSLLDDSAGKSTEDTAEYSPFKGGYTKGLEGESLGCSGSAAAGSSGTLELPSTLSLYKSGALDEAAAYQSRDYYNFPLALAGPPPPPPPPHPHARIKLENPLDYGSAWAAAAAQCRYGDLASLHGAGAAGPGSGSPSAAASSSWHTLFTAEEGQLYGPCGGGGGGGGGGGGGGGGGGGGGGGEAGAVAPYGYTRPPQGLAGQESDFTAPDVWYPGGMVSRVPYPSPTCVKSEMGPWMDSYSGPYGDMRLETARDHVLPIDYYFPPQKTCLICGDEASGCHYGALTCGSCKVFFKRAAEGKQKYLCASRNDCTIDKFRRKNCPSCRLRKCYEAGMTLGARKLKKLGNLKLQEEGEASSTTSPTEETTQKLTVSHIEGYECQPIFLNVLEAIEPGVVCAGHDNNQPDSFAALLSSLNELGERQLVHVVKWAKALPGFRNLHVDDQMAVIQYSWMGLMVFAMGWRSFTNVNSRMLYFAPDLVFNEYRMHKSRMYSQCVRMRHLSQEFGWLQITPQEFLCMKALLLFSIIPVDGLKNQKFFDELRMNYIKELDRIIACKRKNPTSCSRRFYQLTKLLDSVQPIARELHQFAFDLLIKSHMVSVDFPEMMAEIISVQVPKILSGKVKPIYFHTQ
The test can be described thus: Probasin (PB)-luciferase AR-driven reporter assay in LNCaP cells. The settings on record: 24 h, R1881 1 nM. Format: cell-based. A general note: Reporter assays use an easily measured gene product as a stand-in for the process of interest.

pIC50: −log10 of the molar value.

The values below come from publication PMC7985297 (Communications Biology, 2021).

For `O=C1C=CC(=O)c2c(O)cccc21` [juglone], for the setting “inhibitor 10 μM, read-out: PB-luciferase activity normalized to the induction by R1881 (=100) (Fig. 2b)”, the remaining activity at 10 µM was 22.5%. Moreover, the pIC50 (read-out: IC50, androgen-induced PB-luciferase activity) was 5.19.

Broadly, the pIC50 is the negative decadic logarithm of the IC50, by convention in mol/L.
